According to PMC7530726, “A structure-based computational workflow to predict liability and binding modes of small molecules to hERG” (Scientific Reports, 2020):
Where “and” joins values, the source holds several entries; their conditions need not be identical. Equal entries are not always repeated. Where two headings read alike, the source gives them in different places.

Tests used:
[1] = tested on: serotonin 5-hydroxytryptamine receptor 4 (5HT-4); conditions: cited from earlier work
[2] = biological target: T1, hERG Y652A (Homo sapiens, UniProt Q12809, Y652A); experiment: in vitro; conditions: pH 7.4, Percent current inhibition hERG Y652A
T1 sequence (Q12809 whole entry Y652A): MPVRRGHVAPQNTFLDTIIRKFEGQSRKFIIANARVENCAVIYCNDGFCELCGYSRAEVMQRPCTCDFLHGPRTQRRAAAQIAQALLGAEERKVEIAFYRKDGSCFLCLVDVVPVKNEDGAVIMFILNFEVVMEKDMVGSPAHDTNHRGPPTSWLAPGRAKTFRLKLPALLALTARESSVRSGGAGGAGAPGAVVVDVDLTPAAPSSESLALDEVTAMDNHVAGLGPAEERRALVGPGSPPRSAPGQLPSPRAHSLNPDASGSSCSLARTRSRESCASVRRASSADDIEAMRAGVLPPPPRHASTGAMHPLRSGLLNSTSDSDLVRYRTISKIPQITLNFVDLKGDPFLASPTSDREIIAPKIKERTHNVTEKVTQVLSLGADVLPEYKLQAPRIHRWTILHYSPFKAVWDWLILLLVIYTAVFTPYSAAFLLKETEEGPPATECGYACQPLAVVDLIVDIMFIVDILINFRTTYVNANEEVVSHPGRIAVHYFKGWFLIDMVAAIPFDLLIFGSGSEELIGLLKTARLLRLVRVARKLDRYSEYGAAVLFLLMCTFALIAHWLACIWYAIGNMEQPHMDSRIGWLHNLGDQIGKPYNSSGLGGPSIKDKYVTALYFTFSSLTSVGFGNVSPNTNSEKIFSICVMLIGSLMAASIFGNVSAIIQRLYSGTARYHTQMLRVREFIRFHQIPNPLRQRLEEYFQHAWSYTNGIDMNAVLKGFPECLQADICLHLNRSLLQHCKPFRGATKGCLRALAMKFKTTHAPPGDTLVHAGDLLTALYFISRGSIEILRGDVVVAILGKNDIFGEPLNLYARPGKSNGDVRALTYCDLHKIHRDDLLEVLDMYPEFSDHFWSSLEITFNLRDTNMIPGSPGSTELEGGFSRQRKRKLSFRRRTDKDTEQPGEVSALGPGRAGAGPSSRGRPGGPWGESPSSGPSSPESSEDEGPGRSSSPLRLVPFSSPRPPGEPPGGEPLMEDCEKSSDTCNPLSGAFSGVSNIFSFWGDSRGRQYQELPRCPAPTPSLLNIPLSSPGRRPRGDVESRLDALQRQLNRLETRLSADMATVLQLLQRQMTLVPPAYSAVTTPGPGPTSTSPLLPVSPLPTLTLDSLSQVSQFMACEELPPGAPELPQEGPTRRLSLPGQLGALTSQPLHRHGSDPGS

[3] = biological target: T2, hERG F656A (Homo sapiens, UniProt Q12809, F656A); experiment: in vitro
T2 sequence (Q12809 whole entry F656A): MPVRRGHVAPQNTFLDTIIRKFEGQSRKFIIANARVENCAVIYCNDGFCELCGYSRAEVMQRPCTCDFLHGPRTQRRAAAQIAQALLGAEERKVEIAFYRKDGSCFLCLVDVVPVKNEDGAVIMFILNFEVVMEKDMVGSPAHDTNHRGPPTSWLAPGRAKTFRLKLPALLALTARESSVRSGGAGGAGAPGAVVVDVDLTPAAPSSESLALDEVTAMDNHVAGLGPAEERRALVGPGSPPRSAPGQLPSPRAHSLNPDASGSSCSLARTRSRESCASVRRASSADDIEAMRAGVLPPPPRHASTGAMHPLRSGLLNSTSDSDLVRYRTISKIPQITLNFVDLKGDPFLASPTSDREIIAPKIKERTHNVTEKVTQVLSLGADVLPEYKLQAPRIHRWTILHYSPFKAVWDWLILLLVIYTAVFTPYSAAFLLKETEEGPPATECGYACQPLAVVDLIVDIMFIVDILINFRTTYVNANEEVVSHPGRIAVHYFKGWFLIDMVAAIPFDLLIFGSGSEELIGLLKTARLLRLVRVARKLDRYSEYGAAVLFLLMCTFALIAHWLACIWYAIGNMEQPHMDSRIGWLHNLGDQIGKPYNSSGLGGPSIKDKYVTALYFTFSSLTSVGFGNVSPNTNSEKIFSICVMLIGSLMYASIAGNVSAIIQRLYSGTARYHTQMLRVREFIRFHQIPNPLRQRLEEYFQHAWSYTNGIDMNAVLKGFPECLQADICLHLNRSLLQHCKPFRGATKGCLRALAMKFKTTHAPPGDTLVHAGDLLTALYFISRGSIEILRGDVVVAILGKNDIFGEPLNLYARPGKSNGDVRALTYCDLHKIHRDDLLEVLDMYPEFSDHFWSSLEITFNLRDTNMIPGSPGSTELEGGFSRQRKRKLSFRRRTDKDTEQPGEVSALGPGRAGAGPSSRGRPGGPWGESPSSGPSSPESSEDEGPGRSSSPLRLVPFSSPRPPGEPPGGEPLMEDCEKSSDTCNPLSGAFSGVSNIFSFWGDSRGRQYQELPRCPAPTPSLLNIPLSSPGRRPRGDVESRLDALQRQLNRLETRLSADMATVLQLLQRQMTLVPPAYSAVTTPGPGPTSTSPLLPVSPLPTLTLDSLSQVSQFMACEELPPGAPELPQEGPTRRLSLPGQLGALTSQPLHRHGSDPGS

[4] = tested on: hERG; conditions: cited from earlier work
[5] = biological target: T3, WT hERG (Homo sapiens, UniProt Q12809); experiment: Predictor hERG Fluorescence Polarization Assay kit; format: binding
T3 construct: purchased Life Technologies
T3 sequence (Q12809 whole entry): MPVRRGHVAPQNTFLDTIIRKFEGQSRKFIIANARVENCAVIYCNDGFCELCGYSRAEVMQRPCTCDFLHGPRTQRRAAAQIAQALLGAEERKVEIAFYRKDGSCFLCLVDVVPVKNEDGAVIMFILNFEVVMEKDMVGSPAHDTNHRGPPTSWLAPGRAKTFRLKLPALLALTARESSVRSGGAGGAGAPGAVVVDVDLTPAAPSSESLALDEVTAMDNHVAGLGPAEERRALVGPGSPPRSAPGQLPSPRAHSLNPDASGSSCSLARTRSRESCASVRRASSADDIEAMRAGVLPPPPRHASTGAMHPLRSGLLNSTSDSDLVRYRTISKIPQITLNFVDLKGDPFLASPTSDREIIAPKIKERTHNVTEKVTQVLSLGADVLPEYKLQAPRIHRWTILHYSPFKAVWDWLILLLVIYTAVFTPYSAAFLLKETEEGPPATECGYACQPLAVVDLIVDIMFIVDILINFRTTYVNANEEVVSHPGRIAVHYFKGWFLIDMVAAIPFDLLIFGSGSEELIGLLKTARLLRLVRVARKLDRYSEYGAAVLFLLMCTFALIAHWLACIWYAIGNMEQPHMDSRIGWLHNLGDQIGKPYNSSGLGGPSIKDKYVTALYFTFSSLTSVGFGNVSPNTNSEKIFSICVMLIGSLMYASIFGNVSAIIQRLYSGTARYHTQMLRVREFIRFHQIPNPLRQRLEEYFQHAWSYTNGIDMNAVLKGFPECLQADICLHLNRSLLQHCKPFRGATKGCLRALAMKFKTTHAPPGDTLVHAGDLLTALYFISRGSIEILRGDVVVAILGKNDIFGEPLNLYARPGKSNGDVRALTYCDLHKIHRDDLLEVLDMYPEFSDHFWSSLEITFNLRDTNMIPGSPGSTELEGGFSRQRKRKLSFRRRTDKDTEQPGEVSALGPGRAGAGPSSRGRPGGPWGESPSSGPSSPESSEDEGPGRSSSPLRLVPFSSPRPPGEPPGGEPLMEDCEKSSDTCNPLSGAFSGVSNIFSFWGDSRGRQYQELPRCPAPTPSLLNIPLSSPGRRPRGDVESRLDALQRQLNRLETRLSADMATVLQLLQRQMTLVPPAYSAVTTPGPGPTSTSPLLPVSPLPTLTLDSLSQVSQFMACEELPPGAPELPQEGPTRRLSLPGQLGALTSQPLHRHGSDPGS
Procedure: All measurements were made according to the manufacturer’s instruction. Fluorescence polarization was measured using PerkinElmer EnVision® Multilabel reader (PerkinElmer, Woodbridge, ON, Canada).

[6] = biological target: T4, hERG WT (Homo sapiens, UniProt Q12809); conditions: 1 µM
T4 sequence (Q12809 whole entry): as above

[7] = biological target: T1, hERG Y652A; conditions: 1 µM
[8] = biological target: T2, hERG F656A; conditions: 1 µM
[9] = biological target: T4, hERG WT; experiment: in vitro; conditions: Percent current inhibition hERG WT
[10] = biological target: T4, hERG WT
[11] = biological target: T1, hERG Y652A; experiment: Whole-cell patch clamp (automated), HEK cells stably expressing hERGY652A
[12] = biological target: T2, hERG F656A; experiment: Whole-cell patch clamp (manual, 135 mM K+), HEK cells stably expressing hERGF656A
[13] = pH 7.4, Percent current inhibition hERG F656A
[14] = pH 7.4, reduction in the inhibition of F656A mutant when compared to the WT
[15] = read-out: hERG IC50 from literature, Patch clamp HEK293 cells @ 23 ± 1 °C, ref Toga et al.
[16] = read-out: hERG IC50 from literature, Patch clamp HEK293 cells @ 34 ± 1 °C, ref Wu et al.

Question: For `COc1cc(N)c(Cl)cc1C(=O)NC1CCN(CCCOc2ccc(F)cc2)CC1OC` (centres unmarked) [Cisapride], which “binding affinity to 5HT-4 (agonist)” value [1] is on record?
Answer: The value was ~ 14 nM.

Question: And the inhibition at 3 µM [2]?
Answer: The inhibition at 3 µM was 39.1%.

Question: And the inhibition at 5 µM [2]?
Answer: The inhibition at 5 µM was 57.7%.

Question: And the inhibition at 10 µM [2]?
Answer: Its inhibition at 10 µM is 91.7%.

Question: And the inhibition at 3 µM [3, 13]?
Answer: Its inhibition at 3 µM is 38.7%.

Question: And the inhibition at 5 µM [3, 13]?
Answer: Its inhibition at 5 µM is 59.6%.

Question: What about the inhibition at 10 µM [3, 13] of the same molecule?
Answer: The inhibition at 10 µM was 75.5%.

Question: And the inhibition at 1 µM [3, 14]?
Answer: The inhibition at 1 µM was about 80%.

Question: What does the source list for `Cc1cccc(C)c1NC(=O)C1CCCCN1C` (centres unmarked) [Mepivacaine]?
Answer: IC50 ([4]; read-out: hERG IC50): > 100 µM and 156 µM; IC50 [4, 16]: 156 µM

Question: Which “affinity to WT hERG in FP assay” value [5] does the source give for `CCOc1cc(N)c(Cl)cc1C(=O)NCC1CN(Cc2ccc(F)cc2)CCO1` (centres unmarked) [Mosapride] here?
Answer: The value was “much weaker affinity”.

Question: What about the “Percent current inhibition hERG WT” value [6] of the same molecule?
Answer: The value was “very small percentage”.

Question: What about the “Percent current inhibition hERG Y652A” value [7] of the same molecule?
Answer: The value was “very small percentage”.

Question: What about the “Percent current inhibition hERG F656A” value [8] of the same molecule?
Answer: Its value is “very small percentage”.

Question: What about the inhibition at 1 µM [9] of the same molecule?
Answer: The inhibition at 1 µM was 13.1%.

Question: And the inhibition at 3 µM [9]?
Answer: Its inhibition at 3 µM is 33.5%.

Question: And the inhibition at 5 µM [9]?
Answer: The inhibition at 5 µM was 45%.

Question: What about the inhibition at 10 µM [9] of the same molecule?
Answer: Its inhibition at 10 µM is 68.7%.

Question: And the inhibition at 30 µM [9]?
Answer: Its inhibition at 30 µM is 92.5%.

Question: What about the inhibition at 1 µM [2] of the same molecule?
Answer: Its inhibition at 1 µM is 7.13%.

Question: And the inhibition at 3 µM [2]?
Answer: Its inhibition at 3 µM is 13.6%.

Question: What about the inhibition at 5 µM [2] of the same molecule?
Answer: The inhibition at 5 µM was 20.6%.

Question: And the inhibition at 10 µM [2]?
Answer: Its inhibition at 10 µM is 31.3 ± 3.65%.

Question: And the inhibition at 30 µM [2]?
Answer: Its inhibition at 30 µM is 66.8%.

Question: What about the inhibition at 1 µM [3, 13] of the same molecule?
Answer: Its inhibition at 1 µM is 11%.

Question: What about the inhibition at 3 µM [3, 13] of the same molecule?
Answer: The inhibition at 3 µM was 12.4%.

Question: What about the inhibition at 5 µM [3, 13] of the same molecule?
Answer: Its inhibition at 5 µM is 16%.

Question: And the inhibition at 10 µM [3, 13]?
Answer: The inhibition at 10 µM was 25.7%.

Question: And the inhibition at 30 µM [3, 13]?
Answer: Its inhibition at 30 µM is 34.4%.

Question: And the inhibition at 100 µM [3, 13]?
Answer: The inhibition at 100 µM was 40.2%.

Question: What about the inhibition at 1 µM [3, 14] of the same molecule?
Answer: Its inhibition at 1 µM is 2%.

Question: What about the IC50 [4, 15] of the same molecule?
Answer: Its IC50 is 4.8 µM.

Question: And the IC50 [10]?
Answer: The IC50 was 5.36 µM.

Question: And the IC50 [11]?
Answer: The IC50 was 17.4 µM.

Question: Which IC50 ([4]; read-out: hERG IC50) does the source give for `Cc1cccc(C)c1NC(=O)CC12CCCN1CCC2` [Pilsicainide] here?
Answer: The IC50 was < 30 µM and ~20 µM.

Question: And the IC50 [4, 16]?
Answer: Its IC50 is 20.4 µM.

Question: Which IC50 ([4]; read-out: hERG IC50 from literature, Patch clamp HEK293 cells @ 37 ± 1 °C, ref Du et al.) does the source give for `COc1ccccc1OCC(O)CN1CCN(CC(=O)Nc2c(C)cccc2C)CC1` (centres unmarked) [Ranolazine] here?
Answer: The IC50 was […].

Question: What about the “Percent current inhibition hERG WT” value ([10]; 100 µM) of the same molecule?
Answer: The value was 97.36% ± 0.89.

Question: And the inhibition at 10 µM ([10]; human, HEK cells stably expressing hERG WT, Percent current inhibition hERG WT, 10 µM)?
Answer: The inhibition at 10 µM was 42.3%.

Question: And the inhibition at 30 µM ([10]; human, HEK cells stably expressing hERG WT, Percent current inhibition hERG WT, 30 µM)?
Answer: Its inhibition at 30 µM is 77%.

Question: And the inhibition at 100 µM ([10]; human, HEK cells stably expressing hERG WT, Percent current inhibition hERG WT, 100 µM)?
Answer: The inhibition at 100 µM was about 90%.

Question: What about the inhibition at 300 µM ([10]; human, HEK cells stably expressing hERG WT, Percent current inhibition hERG WT, 300 µM) of the same molecule?
Answer: The inhibition at 300 µM was 100%.

Question: And the inhibition at 500 µM ([10]; human, HEK cells stably expressing hERG WT, Percent current inhibition hERG WT, 500 µM)?
Answer: Its inhibition at 500 µM is 100%.

Question: And the “Percent current inhibition hERG Y652A” value ([11]; 100 µM)?
Answer: The value was 24.62% ± 2.64.

Question: What about the inhibition at 10 µM ([11]; human, HEK cells stably expressing hERG Y652A, pH 7.4, Percent current inhibition hERG Y652A, 10 µM) of the same molecule?
Answer: Its inhibition at 10 µM is 2.4%.

Question: And the inhibition at 30 µM ([11]; human, HEK cells stably expressing hERG Y652A, pH 7.4, Percent current inhibition hERG Y652A, 30 µM)?
Answer: The inhibition at 30 µM was 10.1%.

Question: What about the inhibition at 100 µM ([11]; human, HEK cells stably expressing hERG Y652A, pH 7.4, Percent current inhibition hERG Y652A, 100 µM) of the same molecule?
Answer: Its inhibition at 100 µM is 25%.

Question: And the inhibition at 300 µM ([11]; human, HEK cells stably expressing hERG Y652A, pH 7.4, Percent current inhibition hERG Y652A, 300 µM)?
Answer: The inhibition at 300 µM was 64%.

Question: And the inhibition at 500 µM ([11]; human, HEK cells stably expressing hERG Y652A, pH 7.4, Percent current inhibition hERG Y652A, 500 µM)?
Answer: The inhibition at 500 µM was 84.6%.

Question: What about the “Percent current inhibition hERG F656A” value ([12]; 100 µM) of the same molecule?
Answer: Its value is 21.37% ± 7.80.

Question: What about the inhibition at 10 µM ([12]; human, HEK cells stably expressing hERG F656A, pH 7.4, Percent current inhibition hERG F656A, 10 µM) of the same molecule?
Answer: Its inhibition at 10 µM is 4.39%.

Question: What about the inhibition at 30 µM ([12]; human, HEK cells stably expressing hERG F656A, pH 7.4, Percent current inhibition hERG F656A, 30 µM) of the same molecule?
Answer: Its inhibition at 30 µM is 10.9%.

Question: What about the inhibition at 300 µM ([12]; human, HEK cells stably expressing hERG F656A, pH 7.4, Percent current inhibition hERG F656A, 300 µM) of the same molecule?
Answer: The inhibition at 300 µM was 37.7%.

Question: What about the inhibition at 500 µM ([12]; human, HEK cells stably expressing hERG F656A, pH 7.4, Percent current inhibition hERG F656A, 500 µM) of the same molecule?
Answer: The inhibition at 500 µM was 49.6%.
